Reference: patent US4068070A, “α-Cyanoamine compounds and a process for producing the same” (Fuji Chemical Industry Co., Ltd., priority 1974, dated 1978)

Tests used:
Assay type in all cases: in vivo, mongrel adult dogs
[1] = test system: arterial mean blood pressure; test: Effects on arterial mean blood pressure
Summary of the method: (§1)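 Anaesthetised (pentobarbital sodium) thoracotomised mongrel dogs of either sex, about 10 kg, dosed intravenously via brachial vein, compounds in 0.2% CMC, HCl solution (pH 6) or saline. Arterial pressure via carotid cannula transducer, aortic and coronary sinus outflow by electromagnetic flowmeter, sinus pO2 by electrode after Morawitz cannulation.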

[2] = test system: aortic blood flow; test: Effects on aortic blood flow
Summary of the method: as §1

[3] = test system: coronary sinus out flow; test: Effects on coronary sinus out flow
Summary of the method: as §1

[4] = test system: coronary sinus oxygen tension; test: Effects on coronary sinus oxygen tension
Summary of the method: as §1

[5] = test system: heart rate; test: Effects on heart rate
Summary of the method: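 Adult mongrel dogs of both sexes were anesthetized with pentobarbital and thoracotomized. Test agents, suspended or dissolved in 0.2% CMC, pH 6 HCl solution or saline, were injected intravenously into the brachial vein. Hemodynamic and coronary sinus parameters were then recorded.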

Structure (SMILES): CCOC(=O)CN1CCN(C(C#N)c2ccc(OC)c(OC)c2)CC1 (centres unmarked) [Compound B]
- Changes (%) of basal values, arterial mean blood pressure ([1]; 0.2 mg/kg i.v., 1 min): +4.8%
- Changes (%) of basal values, arterial mean blood pressure ([1]; 0.2 mg/kg i.v., 5 min): +0.4%
- Changes (%) of basal values, arterial mean blood pressure ([1]; 0.2 mg/kg i.v., 10 min): +0.1%
- Changes (%) of basal values, arterial mean blood pressure ([1]; 0.2 mg/kg i.v., 20 min): -0.1%
- Changes (%) of basal values, arterial mean blood pressure ([1]; 0.2 mg/kg i.v., 30 min): 0%
- Changes (%) of basal values, arterial mean blood pressure ([1]; 0.2 mg/kg i.v., 40 min): 0%
- Changes (%) of basal values, arterial mean blood pressure ([1]; 0.2 mg/kg i.v., imm.): -5.0%
- Changes (%) of basal values, arterial mean blood pressure ([1]; 0.6 mg/kg i.v., 1 min): +6.2%
- Changes (%) of basal values, arterial mean blood pressure ([1]; 0.6 mg/kg i.v., 5 min): +0.1%
- Changes (%) of basal values, arterial mean blood pressure ([1]; 0.6 mg/kg i.v., 10 min): -0.3%
- Changes (%) of basal values, arterial mean blood pressure ([1]; 0.6 mg/kg i.v., 20 min): 0%
- Changes (%) of basal values, arterial mean blood pressure ([1]; 0.6 mg/kg i.v., 30 min): 0%
- Changes (%) of basal values, arterial mean blood pressure ([1]; 0.6 mg/kg i.v., 40 min): 0%
- Changes (%) of basal values, arterial mean blood pressure ([1]; 0.6 mg/kg i.v., imm.): -14.4%
- Changes (%) of basal values, arterial mean blood pressure ([1]; 3.0 mg/kg i.v., 1 min): +7.0%
- Changes (%) of basal values, arterial mean blood pressure ([1]; 3.0 mg/kg i.v., 5 min): +2.5%
- Changes (%) of basal values, arterial mean blood pressure ([1]; 3.0 mg/kg i.v., 10 min): +0.4%
- Changes (%) of basal values, arterial mean blood pressure ([1]; 3.0 mg/kg i.v., 20 min): -1.0%
- Changes (%) of basal values, arterial mean blood pressure ([1]; 3.0 mg/kg i.v., 30 min): -0.5%
- Changes (%) of basal values, arterial mean blood pressure ([1]; 3.0 mg/kg i.v., 40 min): 0%
- Changes (%) of basal values, arterial mean blood pressure ([1]; 3.0 mg/kg i.v., imm.): -16.2%
- Effects on arterial mean blood pressure (in words) ([1]; i.v., anesthetized dogs): transitory hypotensive effect immediately after administration, and thereafter increased blood pressure which was then, from 10 minutes after medication, returned to the level before treatment
- Changes (%) of basal values, aortic blood flow ([2]; 0.2 mg/kg i.v., 1 min): +1.2%
- Changes (%) of basal values, aortic blood flow ([2]; 0.2 mg/kg i.v., 5 min): +0.3%
- Changes (%) of basal values, aortic blood flow ([2]; 0.2 mg/kg i.v., 10 min): -0.1%
- Changes (%) of basal values, aortic blood flow ([2]; 0.2 mg/kg i.v., 20 min): 0%
- Changes (%) of basal values, aortic blood flow ([2]; 0.2 mg/kg i.v., 30 min): 0%
- Changes (%) of basal values, aortic blood flow ([2]; 0.2 mg/kg i.v., 40 min): 0%
- Changes (%) of basal values, aortic blood flow ([2]; 0.2 mg/kg i.v., imm.): +2.5%
- Changes (%) of basal values, aortic blood flow ([2]; 0.6 mg/kg i.v., 1 min): +1.6%
- Changes (%) of basal values, aortic blood flow ([2]; 0.6 mg/kg i.v., 5 min): +2.3%
- Changes (%) of basal values, aortic blood flow ([2]; 0.6 mg/kg i.v., 10 min): 0%
- Changes (%) of basal values, aortic blood flow ([2]; 0.6 mg/kg i.v., 20 min): -1.1%
- Changes (%) of basal values, aortic blood flow ([2]; 0.6 mg/kg i.v., 30 min): -0.7%
- Changes (%) of basal values, aortic blood flow ([2]; 0.6 mg/kg i.v., 40 min): 0%
- Changes (%) of basal values, aortic blood flow ([2]; 0.6 mg/kg i.v., imm.): +4.8%
- Changes (%) of basal values, aortic blood flow ([2]; 2.0 mg/kg i.v., 1 min): +4.3%
- Changes (%) of basal values, aortic blood flow ([2]; 2.0 mg/kg i.v., 5 min): -1.2%
- Changes (%) of basal values, aortic blood flow ([2]; 2.0 mg/kg i.v., 10 min): -2.1%
- Changes (%) of basal values, aortic blood flow ([2]; 2.0 mg/kg i.v., 20 min): -1.8%
- Changes (%) of basal values, aortic blood flow ([2]; 2.0 mg/kg i.v., 30 min): 0%
- Changes (%) of basal values, aortic blood flow ([2]; 2.0 mg/kg i.v., 40 min): 0%
- Changes (%) of basal values, aortic blood flow ([2]; 2.0 mg/kg i.v., imm.): +6.2%
- Effects on aortic blood flow (in words) ([2]; i.v., anesthetized dogs): an increase in blood flow immediately after administration, followed by a decrease in blood flow
- Changes(%) of basal values, coronary sinus out flow ([3]; 0.2 mg/kg i.v., 1 min): +4.9%
- Changes(%) of basal values, coronary sinus out flow ([3]; 0.2 mg/kg i.v., 5 min): +0.7%
- Changes(%) of basal values, coronary sinus out flow ([3]; 0.2 mg/kg i.v., 10 min): 0%
- Changes(%) of basal values, coronary sinus out flow ([3]; 0.2 mg/kg i.v., 20 min): -0.3%
- Changes(%) of basal values, coronary sinus out flow ([3]; 0.2 mg/kg i.v., 30 min): 0%
- Changes(%) of basal values, coronary sinus out flow ([3]; 0.2 mg/kg i.v., 40 min): 0%
- Changes(%) of basal values, coronary sinus out flow ([3]; 0.2 mg/kg i.v., imm.): +18.0%
- Changes(%) of basal values, coronary sinus out flow ([3]; 0.6 mg/kg i.v., 1 min): +30.7%
- Changes(%) of basal values, coronary sinus out flow ([3]; 0.6 mg/kg i.v., 5 min): +0.9%
- Changes(%) of basal values, coronary sinus out flow ([3]; 0.6 mg/kg i.v., 10 min): -0.7%
- Changes(%) of basal values, coronary sinus out flow ([3]; 0.6 mg/kg i.v., 20 min): -0.2%
- Changes(%) of basal values, coronary sinus out flow ([3]; 0.6 mg/kg i.v., 30 min): 0%
- Changes(%) of basal values, coronary sinus out flow ([3]; 0.6 mg/kg i.v., 40 min): 0%
- Changes(%) of basal values, coronary sinus out flow ([3]; 0.6 mg/kg i.v., imm.): +39.5%
- Changes(%) of basal values, coronary sinus out flow ([3]; 2.0 mg/kg i.v., 1 min): +47.4%
- Changes(%) of basal values, coronary sinus out flow ([3]; 2.0 mg/kg i.v., 5 min): +8.2%
- Changes(%) of basal values, coronary sinus out flow ([3]; 2.0 mg/kg i.v., 10 min): +5.9%
- Changes(%) of basal values, coronary sinus out flow ([3]; 2.0 mg/kg i.v., 20 min): +3.2%
- Changes(%) of basal values, coronary sinus out flow ([3]; 2.0 mg/kg i.v., 30 min): +1.5%
- Changes(%) of basal values, coronary sinus out flow ([3]; 2.0 mg/kg i.v., 40 min): 0%
- Changes(%) of basal values, coronary sinus out flow ([3]; 2.0 mg/kg i.v., imm.): +55.1%
- Effects on coronary sinus out flow (in words) ([3]; i.v., anesthetized dogs): a marked increasing effect on coronary sinus out flow, which was proportioned to doses thereof and of long duration
- Changes(%) of basal values, coronary sinus oxygen tension ([4]; 0.2 mg/kg i.v., 1 min): +11.3%
- Changes(%) of basal values, coronary sinus oxygen tension ([4]; 0.2 mg/kg i.v., 5 min): +1.0%
- Changes(%) of basal values, coronary sinus oxygen tension ([4]; 0.2 mg/kg i.v., 10 min): -2.0%
- Changes(%) of basal values, coronary sinus oxygen tension ([4]; 0.2 mg/kg i.v., 20 min): -0.5%
- Changes(%) of basal values, coronary sinus oxygen tension ([4]; 0.2 mg/kg i.v., 30 min): 0%
- Changes(%) of basal values, coronary sinus oxygen tension ([4]; 0.2 mg/kg i.v., 40 min): 0%
- Changes(%) of basal values, coronary sinus oxygen tension ([4]; 0.2 mg/kg i.v., imm.): +25.5%
- Changes(%) of basal values, coronary sinus oxygen tension ([4]; 0.6 mg/kg i.v., 1 min): +46.4%
- Changes(%) of basal values, coronary sinus oxygen tension ([4]; 0.6 mg/kg i.v., 5 min): +8.9%
- Changes(%) of basal values, coronary sinus oxygen tension ([4]; 0.6 mg/kg i.v., 10 min): -3.2%
- Changes(%) of basal values, coronary sinus oxygen tension ([4]; 0.6 mg/kg i.v., 20 min): -0.9%
- Changes(%) of basal values, coronary sinus oxygen tension ([4]; 0.6 mg/kg i.v., 30 min): 0%
- Changes(%) of basal values, coronary sinus oxygen tension ([4]; 0.6 mg/kg i.v., 40 min): 0%
- Changes(%) of basal values, coronary sinus oxygen tension ([4]; 0.6 mg/kg i.v., imm.): +68.4%
- Changes(%) of basal values, coronary sinus oxygen tension ([4]; 2.0 mg/kg i.v., 1 min): +70.9%
- Changes(%) of basal values, coronary sinus oxygen tension ([4]; 2.0 mg/kg i.v., 5 min): +26.7%
- Changes(%) of basal values, coronary sinus oxygen tension ([4]; 2.0 mg/kg i.v., 10 min): +8.0%
- Changes(%) of basal values, coronary sinus oxygen tension ([4]; 2.0 mg/kg i.v., 20 min): +3.0%
- Changes(%) of basal values, coronary sinus oxygen tension ([4]; 2.0 mg/kg i.v., 30 min): +0.8%
- Changes(%) of basal values, coronary sinus oxygen tension ([4]; 2.0 mg/kg i.v., 40 min): 0%
- Changes(%) of basal values, coronary sinus oxygen tension ([4]; 2.0 mg/kg i.v., imm.): +80.7%
- Effects on coronary sinus oxygen tension (in words) ([4]; i.v., anesthetized dogs): a significant increase in coronary sinus oxygen tension, effect of which was of long duration
- Changes(%) of basal values, heart rate ([5]; 0.2 mg/kg i.v., 1 min): -0.9%
- Changes(%) of basal values, heart rate ([5]; 0.2 mg/kg i.v., 5 min): 0%
- Changes(%) of basal values, heart rate ([5]; 0.2 mg/kg i.v., 10 min): 0%
- Changes(%) of basal values, heart rate ([5]; 0.2 mg/kg i.v., 20 min): 0%
- Changes(%) of basal values, heart rate ([5]; 0.2 mg/kg i.v., 30 min): 0%
- Changes(%) of basal values, heart rate ([5]; 0.2 mg/kg i.v., 40 min): 0%
- Changes(%) of basal values, heart rate ([5]; 0.2 mg/kg i.v., imm.): -2.4%
- Changes(%) of basal values, heart rate ([5]; 0.6 mg/kg i.v., 1 min): +0.6%
- Changes(%) of basal values, heart rate ([5]; 0.6 mg/kg i.v., 5 min): -0.8%
- Changes(%) of basal values, heart rate ([5]; 0.6 mg/kg i.v., 10 min): -0.2%
- Changes(%) of basal values, heart rate ([5]; 0.6 mg/kg i.v., 20 min): 0%
- Changes(%) of basal values, heart rate ([5]; 0.6 mg/kg i.v., 30 min): -0.5%
- Changes(%) of basal values, heart rate ([5]; 0.6 mg/kg i.v., 40 min): 0%
- Changes(%) of basal values, heart rate ([5]; 0.6 mg/kg i.v., imm.): -13.1%
- Changes(%) of basal values, heart rate ([5]; 2.0 mg/kg i.v., 1 min): -2.4%
- Changes(%) of basal values, heart rate ([5]; 2.0 mg/kg i.v., 5 min): -1.5%
- Changes(%) of basal values, heart rate ([5]; 2.0 mg/kg i.v., 10 min): -0.7%
- Changes(%) of basal values, heart rate ([5]; 2.0 mg/kg i.v., 20 min): 0%
- Changes(%) of basal values, heart rate ([5]; 2.0 mg/kg i.v., 30 min): 0%
- Changes(%) of basal values, heart rate ([5]; 2.0 mg/kg i.v., 40 min): 0%
- Changes(%) of basal values, heart rate ([5]; 2.0 mg/kg i.v., imm.): -25.3%
- Effects on heart rate (in words) ([5]; i.v., anesthetized dogs): a slight negative chronotropic effect
